From patent publication US7358235B2, “Analogs of nitrobenzylthioinosine” (Gruenenthal GmbH, priority 2002, dated 2008)
Entries after “also recorded” stand apart in the source; their conditions may differ. Like-named read-outs stand apart in the source and are kept apart here. Marks after values point to notes of the source that are not given here.

Tests used:
[1] = target: T1, nucleoside transport protein (Homo sapiens, UniProt Q99808); test: [3H]NBTI radioligand binding assay on human erythrocyte membranes; conditions: for affinity / activity in words: comparison within the series, [3H]NBTI binding
T1 construct: tissue Blood Bank, Leiden University Medical Center; host or cells: human erythrocyte membranes (ghosts) from whole human blood
T1 sequence (Q99808 1-456): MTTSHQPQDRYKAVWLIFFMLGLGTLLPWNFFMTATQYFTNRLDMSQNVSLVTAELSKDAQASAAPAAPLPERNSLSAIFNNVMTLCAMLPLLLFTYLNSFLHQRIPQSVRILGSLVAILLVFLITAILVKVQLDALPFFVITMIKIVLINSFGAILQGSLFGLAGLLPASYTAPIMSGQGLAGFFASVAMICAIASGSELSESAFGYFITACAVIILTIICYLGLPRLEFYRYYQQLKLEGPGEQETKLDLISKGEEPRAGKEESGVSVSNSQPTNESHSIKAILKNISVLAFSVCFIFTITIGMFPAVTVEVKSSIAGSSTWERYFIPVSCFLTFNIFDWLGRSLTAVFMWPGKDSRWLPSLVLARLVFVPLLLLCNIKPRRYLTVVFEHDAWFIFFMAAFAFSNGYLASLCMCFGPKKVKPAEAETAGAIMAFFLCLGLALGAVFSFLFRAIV
Method: All final products were tested in a radioligand binding assay.
Erythrocytes and membrane preparation. Whole human blood (Blood Bank, Leiden University Medical Center) was stirred in lysis buffer (½ v/v, 10 mM MgCl2 in 10 mM Tris HCl, pH 8.0 at 25° C.) for 1 h. After homogenization it was centrifuged for 50 min at 19,000 rpm. The supernatant was removed and the pellet was dissolved in ice-cold water and centrifuged again for 50 min. This procedure was repeated two more times. After removal of the last supernatant 25 mL of buffer (50 mM Tris HCl, pH 7.4 at 25° C.) was added to the final pink pellet. This suspension was homogenized and the ghosts were collected. Aliquots were stored at −80° C. until further use.
Saturation and displacement equilibrium NBTI binding to membranes prepared from human erythrocytes (ghosts) was determined at 25° C. based on a method previously described.

[2] = inhibition of equilibrium binding of [3H]NBTI, Table 1, read-out: Ki(nM), affinity for the nucleoside transport protein on human erythrocyte membranes
[3] = human erythrocyte membranes, [3H]NBTI 1.5 nM, 30 minutes at 25° C., Tris.HCl pH 7.4, read-out: Binding (Nucleoside Transporter (Ki))

| SMILES | Ki [1, 2] [nM] | Ki [1, 3] [nM] | affinity / activity in words [1] | other results |
| --- | --- | --- | --- | --- |
| OC[C@H]1O[C@@H](n2cnc3c(SCc4cc(Cl)cc5nonc45)ncnc32)[C@H](O)[C@@H]1O [Compound 16] | 25 | – | – | – |
| OCC1OC(n2cnc3c(SCc4ccc5nsc(Br)c5c4)ncnc32)C(O)C1O (stereo not drawn) [Example 2, 2-[6-(3-Bromo-benzo[c]isothiazol-5-ylmethylsulfanyl)-purin-9-yl]-5-hydroxymethyl-tetrahydro-furan-3,4-diol] | 42 | – | – | – |
| OCC1OC(n2cnc3c(SCc4ccc5nonc5c4)ncnc32)C(O)C1O (stereo not drawn) [Example 3, 2-[6-(Benzo[1,2,5]oxadiazol-5-ylmethylsulfanyl)-purin-9-yl]-5-hydroxymethyl-tetrahydro-furan-3,4-diol] | 1.5 | – | – | – |
| OCC1OC(n2cnc3c(SCc4cccc5nonc45)ncnc32)C(O)C1O (stereo not drawn) [Example 4] | 9.7 | – | – | – |
| OCC1OC(n2cnc3c(SCc4cccc5conc45)ncnc32)C(O)C1O (stereo not drawn) [Example 7, 2-[6-(Benzo[c]isoxazol-7-ylmethylsulfanyl)-purin-9-yl]-5-hydroxy methyl-tetrahydro-furan-3,4-diol] | 666 | – | – | – |
| OCC1OC(n2cnc3c(SCc4ccc5nsc(Br)c5c4)ncnc32)C(O)C1O (stereo not drawn) [Example 10, 2-[6-(3-Bromo-benzo[c]isothiazol-5-ylmethylsulfanyl)-purin-9-yl]-5-hydroxymethyl-tetra hydro-furan-3,4-diol] | – | 42 | – | – |
| OCC1OC(n2cnc3c(SCc4ccc5nc[nH]c5c4)ncnc32)C(O)C1O (stereo not drawn) [Example 11, 2-[6-(3H-Benzoimidazol-5-ylmethylsulfanyl)-purin-9-yl]-5-hydroxymethyl-tetra hydro-furan-3,4-diol] | 191 | 191 | – | – |
| OCC1OC(n2cnc3c(SCc4cccc5nc[nH]c45)ncnc32)C(O)C1O (stereo not drawn) [Example 12, 2-[6-(3H-Benzoimidazol-4-ylmethylsulfanyl)-purin-9-yl]-5-hydroxymethyl-tetrahydro-furan-3,4-diol] | – | – | – | Percentage of displacement at concentration of 10 μM ([1]; 10 μM, [3H]NBTI, human erythrocyte membranes): 42%*; Binding (Nucleoside Transporter), percentage at 10 μM ([1]; 10 μM, human erythrocyte membranes, [3H]NBTI): 42% |
| O=[N+]([O-])c1ccc(CSc2ncnc3c2ncn3C2CCCO2)cc1 (stereo not drawn) [Example 14, 6-(4-Nitro-benzylsulfanyl)-9-(tetrahydro-furan-2-yl)-9H-purine] | 937 | 937 | – | – |
| O=[N+]([O-])c1ccc(CSc2ncnc3c2ncn3C2CCCCO2)cc1 (stereo not drawn) [Example 15, 6-(4-Nitro-benzylsulfanyl)-9-(tetrahydro-pyran-2-yl)-9H-purine] | 1200 | 1200 | – | – |
| O=[N+]([O-])c1ccc(CSc2ncnc3c2ncn3CCCCOC2CCCCO2)cc1 (stereo not drawn) [Example 16, 6-(4-Nitro-benzylsulfanyl)-9-[4-(tetrahydro-pyran-2-yloxy)-butyl]-9H-purine] | 488 | 488 | did not improve the binding affinity | – |
| OCC1OC(n2cnc3c(SCc4ccc5nsc(Br)c5c4)ncnc32)C(O)C1O (stereo not drawn) [Example 31] | – | – | – | affinity gain ([1]; bromination of 28 to yield 31): 2.6 fold; Ki ([1]; human erythrocyte membranes, [3H]NBTI, read-out: Ki): 42 nM |
| OCC1OC(n2cnc3c(SCc4cccc5nc[nH]c45)ncnc32)C(O)C1O (stereo not drawn) [Example 38] | – | – | negative effect on affinity; also recorded: reduced affinity when compared to their counterparts | – |
| O=[N+]([O-])c1ccc(CSc2ncnc3c2ncn3C2CCCO2)cc1 (stereo not drawn) [Example 43] | – | – | decrease in activity compared to compound 53 | – |
| O=[N+]([O-])c1ccc(CSc2ncnc3c2ncn3C2CCCCO2)cc1 (stereo not drawn) [Example 44] | – | – | decrease in activity compared to compound 53 | – |
| O=[N+]([O-])c1ccc(CSc2ncnc3c2ncn3C2CCCC2)cc1 [Example 48] | – | – | decrease in activity compared to a simple n-butyl substituent | – |

Further lines, with some results ahead:

| Ki [1, 2] [nM] | Ki [1, 3] [nM] | affinity / activity in words [1] | SMILES | other results |
| --- | --- | --- | --- | --- |
| 1140 | 1140 | – | O=[N+]([O-])c1ccc(CSc2ncnc3c2ncn3CCCCO)cc1 [Example 17, 4-[6-(4-Nitro-benzylsulfanyl)-purin-9-yl]-butan-1-ol] | – |
| 736 | 736 | – | O=[N+]([O-])c1ccc(CSc2ncnc3c2ncn3C2CCCC2)cc1 [Example 18, 9-Cyclopentyl-6-(4-nitro-benzylsulfanyl)-9H-purine] | – |
| 238 | 238 | – | CCCCn1cnc2c(SCc3ccc([N+](=O)[O-])cc3)ncnc21 [Example 19, 9-Butyl-6-(4-nitro-benzylsulfanyl)-9H-purine] | – |
| 5600 | 5600 | – | CCCCn1cnc2c(SCc3cccc4nonc34)ncnc21 [Example 20, 6-(Benzo[1,2,5]oxadiazol-4-ylmethylsulfanyl)-9-butyl-9H-purine] | – |
| 3100 | 3100 | – | CCCCn1cnc2c(SCc3ccc4nscc4c3)ncnc21 [Example 21, 6-(Benzo[c]isothiazol-5-ylmethylsulfanyl)-9-butyl-9H-purine] | – |
| 682 | 682 | – | CCCCn1cnc2c(SCc3ccc4nsc(Br)c4c3)ncnc21 [Example 22, 6-(3-Bromo-benzo[c]isothiazol-5-ylmethylsulfanyl)-9-butyl-9H-purine] | – |
| 670 | 670 | decrease in affinity | OCC1OC(n2cnc3c(SCc4ccccc4)cc(Cl)nc32)C(O)C1O (stereo not drawn) [Example 23, 2-(7-Benzylsulfanyl-5-chloro-imidazo[4,5-b]pyridin-3-yl)-5-hydroxymethyl-tetrahydro-furan-3,4-diol] | – |
| 47 | 47 | decrease in affinity | O=[N+]([O-])c1ccc(CSc2cc(Cl)nc3c2ncn3C2OC(CO)C(O)C2O)cc1 (stereo not drawn) [Example 24, 2-[5-Chloro-7-(4-nitro-benzylsulfanyl)-imidazo[4,5-b]pyridin-3-yl]-5-hydroxymethyl-tetrahydro-furan-3,4-diol] | increase of affinity relative to 60 ([1]; introduction of a nitro group): approx. tenfold |
| – | 130 | – | O=[N+]([O-])c1ccc(CSc2ncnc3c2ncn3CCCO)cc1 [Example 25, 3-[6-(4-Nitro-benzylsulfanyl)-purin-9-yl]-propan-1-ol] | – |
| – | 135 | – | O=[N+]([O-])c1ccc(CSc2ncnc3c2ncn3Cc2ccccc2)cc1 [Example 26, 9-Benzyl-6-(4-nitro-benzylsulfanyl)-9H-purine] | melting point: 139 °C |
| – | 12 | – | OCC1OC(n2cnc3c(SCCc4ccccc4)ncnc32)C(O)C1O (stereo not drawn) [Example 27, 2-Hydroxymethyl-5-(6-phenethylsulfanyl-purin-9-yl)-tetrahydro-furan-3,4-diol] | – |
| – | – | negative effect on affinity | OCC1OC(n2cnc3c(SCc4ccc5nc[nH]c5c4)ncnc32)C(O)C1O (stereo not drawn) [Example 37] | – |
| – | – | higher affinity | O=[N+]([O-])c1ccc(CSc2ncnc3c2ncn3CCCCOC2CCCCO2)cc1 (stereo not drawn) [Example 46] | – |
